Test results from BindingDB's records for patent US10035761 (Revivia Pharmaceuticals, Inc., 2018).
pKi: −log10 of the molar value.

Assays:
[1] = target: Sodium-dependent noradrenaline transporter (Homo sapiens, UniProt P23975); test: In Vitro Pharmacology Assay
Protocol: (§1) The monoamine transporters inhibitory activities of selected cycloalkylmethylamines of Formula (I) are reported herein. The compounds were evaluated using well established radioligand binding assays protocols (Galli, A. et al., J. Exp. Biol. 1995, 198, 2197-2212; Giros, B. et al., Trends Pharmcol. Sci. 1993, 14, 43-49; Gu, H. et al., J. Biol. Chem. 1994, 269(10), 7124-7130; Shearman, L. P. et al, Am. J. Physiol., 1998, 275(6 Pt 1), C1621-1629; Wolf, W. A. et al., J. Biol. Chem. 1992, 267(29), 20820-20825). The human recombinant transporter proteins dopamine (DAT), norepinephrine (NET) and serotonin (SERT) were selected for the in vitro assays. The radioligand binding assays were carried out at 11 different test concentrations 0.1 nM to 1 μM.

[2] = target: Sodium-dependent serotonin transporter (Homo sapiens, UniProt P31645); test: In Vitro Pharmacology Assay
Protocol: as §1

Sequence of Sodium-dependent noradrenaline transporter (P23975 whole entry): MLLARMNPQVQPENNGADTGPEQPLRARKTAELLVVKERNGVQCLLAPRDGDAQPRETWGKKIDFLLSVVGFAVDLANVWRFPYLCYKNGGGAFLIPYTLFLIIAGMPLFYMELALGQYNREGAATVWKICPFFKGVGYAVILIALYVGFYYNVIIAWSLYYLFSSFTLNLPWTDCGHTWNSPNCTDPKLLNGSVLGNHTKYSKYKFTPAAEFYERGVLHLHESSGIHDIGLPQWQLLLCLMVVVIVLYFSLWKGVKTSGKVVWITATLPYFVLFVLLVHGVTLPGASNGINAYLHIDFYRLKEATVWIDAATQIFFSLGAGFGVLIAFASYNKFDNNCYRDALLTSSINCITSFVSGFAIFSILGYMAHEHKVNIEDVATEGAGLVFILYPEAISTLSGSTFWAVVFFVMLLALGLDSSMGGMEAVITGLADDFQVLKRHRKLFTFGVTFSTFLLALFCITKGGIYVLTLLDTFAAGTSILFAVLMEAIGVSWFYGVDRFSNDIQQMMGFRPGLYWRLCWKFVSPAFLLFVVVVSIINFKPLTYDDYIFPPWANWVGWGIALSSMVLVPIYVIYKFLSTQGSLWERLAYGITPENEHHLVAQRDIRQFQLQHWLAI
Sequence of Sodium-dependent serotonin transporter (P31645 whole entry): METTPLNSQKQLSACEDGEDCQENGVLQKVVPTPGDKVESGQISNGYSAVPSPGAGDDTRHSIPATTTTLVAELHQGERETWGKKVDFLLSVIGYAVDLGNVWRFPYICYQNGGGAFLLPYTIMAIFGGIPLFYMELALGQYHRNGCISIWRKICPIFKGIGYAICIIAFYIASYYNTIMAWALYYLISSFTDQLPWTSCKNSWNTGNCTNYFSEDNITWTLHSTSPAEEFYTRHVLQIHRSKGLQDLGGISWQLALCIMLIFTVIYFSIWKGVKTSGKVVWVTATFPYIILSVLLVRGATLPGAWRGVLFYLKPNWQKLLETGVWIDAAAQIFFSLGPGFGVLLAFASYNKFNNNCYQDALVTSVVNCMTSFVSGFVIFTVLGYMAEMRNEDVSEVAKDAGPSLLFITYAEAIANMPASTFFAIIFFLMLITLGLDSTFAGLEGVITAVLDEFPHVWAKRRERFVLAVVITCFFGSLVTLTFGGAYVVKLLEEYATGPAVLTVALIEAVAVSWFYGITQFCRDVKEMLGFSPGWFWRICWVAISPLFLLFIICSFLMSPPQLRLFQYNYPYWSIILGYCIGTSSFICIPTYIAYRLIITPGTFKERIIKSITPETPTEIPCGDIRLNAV

For `CCSCCNC(CC(C)C)C1(c2ccc(Cl)c(Cl)c2)CCC1` (configuration not stated) [US10035761, Compound 13f], the pKi [1] was 6.92 and the pKi [2] was 6.65.
